Assay results: US20260209214A1, “LSD1 MODULATORS” (RECURSION PHARMACEUTICALS, INC., priority 2022, published 2026)

Biological target: Recombinant human LSD1 (Homo sapiens, UniProt O60341)
Assay: LSD1 inhibition assay (HTRF LSD1 Histone H3K4 mono-demethylation assay, me1->me0)
Format: biochemical
Conditions: 20 nM recombinant human LSD1, 95 nM H3K4(me1) biotinylated peptide, 15 min preincubation, 60 min at 25° C., read-out: LSD1 inhibition IC50 (nM range)
Summary of the method: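 Recombinant human LSD1 (20 nM) pre-incubated 15 min with 10 semi-log compound doses, then 95 nM biotinylated H3K4me1 peptide for 60 min at 25 °C in pH 8.5 Tris/NaCl buffer with 10 μM FAD, 1 mM DTT. HTRF me0-antibody read after 90 min; IC50 from 4-parameter fit.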

SMILES	IC50 [nM]
N#Cc1ccc(-c2cccc(N3CCC(N)CC3)c2-c2cncs2)cc1F [Example 115, 3'-(4-aminopiperidin-1-yl)-3-fluoro-2'-(1,3-thiazol-5-yl)-[1,1'-biphenyl]-4-carbonitrile]	10 to 25
CNC1CCN(c2cccc(-c3ccc(C#N)c(F)c3)c2-c2cncs2)CC1 [Example 116, 3-fluoro-3'-[4-(methylamino)piperidin-1-yl]-2'-(1,3-thiazol-5-yl)-[1,1'-biphenyl]-4-carbonitrile]	10 to 25
N#Cc1ccc(-c2cc(CC3CNCCO3)ccc2NCc2cnn3c2CCCC3)cc1F (centres unmarked) [Example 117, 3-fluoro-5′-[(morpholin-2-yl)methyl]-2′-[{{4H,5H,6H,7H-pyrazolo[1,5-a]pyridin-3-yl}methyl)amino]-[1,1′-biphenyl]-4-carbonitrile]	> 1000
N#Cc1ccc(-c2cc(CC3CNCCO3)ccc2N2CCCC3(CCOC3)C2)cc1F (centres unmarked) [Example 118, 3-fluoro-5′-[(morpholin-2-yl)methyl]-2′-{2-oxa-7-azaspiro[4.5]decan-7-yl}-[1,1′-biphenyl]-4-carbonitrile]	100 to 1000
N#Cc1ccc(-c2cc(CC3CNCCO3)ccc2N2CCC3(CCOC3)C2)cc1F (centres unmarked) [Example 119, 3-fluoro-5′-[(morpholin-2-yl)methyl]-2′-{2-oxa-7-azaspiro[4.4]nonan-7-yl}-[1,1′-biphenyl]-4-carbonitrile]	100 to 1000
CN(C[C@H]1CCCOC1)c1ccc(CC2CNCCO2)cc1-c1ccc(C#N)c(F)c1 (stereo partly drawn) [Example 120, 3-fluoro-2′-[methyl({[(3R)-oxan-3-yl]methyl})amino]-5′-[(morpholin-2-yl)methyl]-[1,1′-biphenyl]-4-carbonitrile]	100 to 1000
Cc1cc(Oc2ccc(CC3CNCCO3)cc2-c2ccc(C#N)c(F)c2)ccn1 (centres unmarked) [Example 121, 3-fluoro-2′-[(2-methylpyridin-4-yl)oxy]-5′-[(morpholin-2-yl)methyl]-[1,1′-biphenyl]-4-carbonitrile]	100 to 1000
CC(C)C1(O)CN(c2ccc(CC3CNCCO3)cc2-c2ccc(C#N)c(F)c2)C1 (centres unmarked) [Example 122, 3-fluoro-2′-[3-hydroxy-3-(propan-2-yl)azetidin-1-yl]-5′-[(morpholin-2-yl)methyl]-[1,1′-biphenyl]-4-carbonitrile]	100 to 1000
N#Cc1ccc(-c2cc(CC3CNCCO3)ccc2N[C@H]2CCCOC2)cc1F (stereo partly drawn) [Example 123, 3-fluoro-5′-[(morpholin-2-yl)methyl]-2′-{[(3S)-oxan-3-yl]amino}-[1,1′-biphenyl]-4-carbonitrile]	> 1000
Cc1ccncc1-c1ccc(CC2CNCCO2)cc1-c1ccc(C#N)c(F)c1 (centres unmarked) [Example 124, 3-fluoro-2′-(4-methylpyridin-3-yl)-5′-[(morpholin-2-yl)methyl]-[1,1′-biphenyl]-4-carbonitrile]	100 to 1000
CNC1CCN(c2cccc(-c3ccc(C#N)c(F)c3)c2C2CC2)CC1 [Example 125, 2'-cyclopropyl-3-fluoro-3'-[4-(methylamino)piperidin-1-yl]-[1,1'-biphenyl]-4-carbonitrile]	100 to 1000
COCC1(O)CCN(c2ccc(CC3CNCCO3)cc2-c2ccc(C#N)c(F)c2)CC1 (centres unmarked) [Example 126, COCC1(O)CCN(CC1)c2ccc(CC3CNCCO3)cc2c4ccc(C#N)c(F)c4]	100 to 1000
N#Cc1ccc(-c2cc(CC3CNCCO3)ccc2N2CC3(CCOC3)C2)cc1F (centres unmarked) [Example 127]	100 to 1000
N#Cc1ccc(-c2cccc(CC3CNCCO3)c2-c2cnccn2)cc1F (centres unmarked) [Example 128, 3-fluoro-3′-[(morpholin-2-yl)methyl]-2′-(pyrazin-2-yl)-[1,1′-biphenyl]-4-carbonitrile]	25 to 100
COCc1cc(-c2ccc(CC3CNCCO3)cc2-c2ccc(C#N)c(F)c2)on1 (centres unmarked) [Example 129, 3-fluoro-2′-[3-(methoxymethyl)-1,2-oxazol-5-yl]-5′-[(morpholin-2-yl)methyl]-[1,1′-biphenyl]-4-carbonitrile]	100 to 1000
COCc1ncc(-c2ccc(CC3CNCCO3)cc2-c2ccc(C#N)c(F)c2)o1 (centres unmarked) [Example 130, 3-fluoro-2′-[2-(methoxymethyl)-1,3-oxazol-5-yl]-5′-[(morpholin-2-yl)methyl]-[1,1′-biphenyl]-4-carbonitrile]	> 1000
N#Cc1ccc(-c2cc(C[C@@H]3CN4CCC[C@H]4CO3)ccc2N2CCC2)cc1F [Example 131, 5′-{[(3R,8aS)-hexahydro-1H-pyrrolo[2,1-c][1,4]oxazin-3-yl]methyl}-2′-(azetidin-1-yl)-3-fluoro-[1,1′-biphenyl]-4-carbonitrile]	> 1000
COc1cnc(-c2ccc(CC3CNCCO3)cc2-c2ccc(C#N)c(F)c2)cn1 (centres unmarked) [Example 132, 3-fluoro-2′-(5-methoxypyrazin-2-yl)-5′-[(morpholin-2-yl)methyl]-[1,1′-biphenyl]-4-carbonitrile]	> 1000
COc1ccc(-c2ccc(CC3CNCCO3)cc2-c2ccc(C#N)c(F)c2)nc1 (centres unmarked) [Example 133, 3-fluoro-2′-(5-methoxypyridin-2-yl)-5′-[(morpholin-2-yl)methyl]-[1,1′-biphenyl]-4-carbonitrile]	100 to 1000

SMILES	IC50 [nM]
N#Cc1ccc(-c2cc(CC3CNCCO3)ccc2N2CCC2)cc1Cl (centres unmarked) [Example 134, 4-[2-(azetidin-1-yl)-5-(morpholin-2-ylmethyl)phenyl]-2-chloro-benzonitrile]	> 1000
N#Cc1ccc(-c2cc(CC3CNC4(CC4)CO3)ccc2N2CCC2)cc1F (centres unmarked) [Example 135, 2′-(azetidin-1-yl)-3-fluoro-5′-({7-oxa-4-azaspiro[2.5]octan-6-yl}methyl)-[1,1′-biphenyl]-4-carbonitrile]	> 1000
CC(C)(c1ccc(N2CCC2)c(-c2ccc(C#N)c(F)c2)c1)C1CNCCO1 (centres unmarked) [Example 136, 2′-(azetidin-1-yl)-3-fluoro-5′-[2-(morpholin-2-yl)propan-2-yl]-[1,1′-biphenyl]-4-carbonitrile]	> 1000
N#Cc1ccc(-c2cc(CC3CNCCO3)ccc2N2CC(CO)C2)cc1F (centres unmarked) [Example 137, 3-fluoro-2′-[3-(hydroxymethyl)azetidin-1-yl]-5′-[(morpholin-2-yl)methyl]-[1,1′-biphenyl]-4-carbonitrile]	100 to 1000
CC1(O)CCN(c2ccc(CC3CNCCO3)cc2-c2ccc(C#N)c(F)c2)CC1 (centres unmarked) [Example 138, 3-fluoro-2′-(4-hydroxy-4-methylpiperidin-1-yl)-5′-[(morpholin-2-yl)methyl]-[1,1′-biphenyl]-4-carbonitrile]	25 to 100
CC1(C)CNCC(Cc2ccc(N3CCC3)c(-c3ccc(C#N)c(F)c3)c2)O1 (centres unmarked) [Example 139, 2'-(azetidin-1-yl)-5'-[(6,6-dimethylmorpholin-2-yl)methyl]-3-fluoro-[1,1'-biphenyl]-4-carbonitrile]	100 to 1000
COC1CN(c2ccc(CC3CNCCO3)cc2-c2ccc(C#N)c(F)c2)C1 (centres unmarked) [Example 140, 3-fluoro-2′-(3-methoxyazetidin-1-yl)-5′-[(morpholin-2-yl)methyl]-[1,1′-biphenyl]-4-carbonitrile]	> 1000
N#Cc1ccc(-c2cc(CC3CNCCO3)ccc2C2CC2)cc1F (centres unmarked) [Example 141, 2′-cyclopropyl-3-fluoro-5′-[(morpholin-2-yl)methyl]-[1,1′-biphenyl]-4-carbonitrile]	100 to 1000
COc1ccc(CC2CNCCO2)cc1-c1ccc(C#N)c(F)c1 (centres unmarked) [Example 142, 3-fluoro-2′-methoxy-5′-[(morpholin-2-yl)methyl]-[1,1′-biphenyl]-4-carbonitrile]	> 1000
N#Cc1ccc(-c2cc(CC3CNCCO3)ccc2N2CCCOCC2)cc1F (centres unmarked) [Example 143, 3-fluoro-5'-[(morpholin-2-yl)methyl]-2'-(1,4-oxazepan-4-yl)-[1,1'-biphenyl]-4-carbonitrile]	100 to 1000
CC(c1ccc(N2CCC2)c(-c2ccc(C#N)c(F)c2)c1)C1CNCCO1 (centres unmarked) [Example 144, 2′-(azetidin-1-yl)-3-fluoro-5′-[1-(morpholin-2-yl)ethyl]-[1,1′-biphenyl]-4-carbonitrile]	> 1000
N#Cc1ccc(-c2cc(CC3CNCCO3)ccc2C2CCCO2)cc1F (centres unmarked) [Example 145, 3-fluoro-5′-[(morpholin-2-yl)methyl]-2′-(oxolan-2-yl)-[1,1′-biphenyl]-4-carbonitrile]	> 1000
CN1CCOC(Cc2ccc(N3CCC3)c(-c3ccc(C#N)c(F)c3)c2)C1 (centres unmarked) [Example 146, 2′-(azetidin-1-yl)-3-fluoro-5′-[(4-methylmorpholin-2-yl)methyl]-[1,1′-biphenyl]-4-carbonitrile]	> 1000
N#Cc1ccc(-c2cc(CC3CNCCO3)ccc2N2CCCC2)cc1F (centres unmarked) [Example 147, 3-fluoro-5′-[(morpholin-2-yl)methyl]-2′-(pyrrolidin-1-yl)-[1,1′-biphenyl]-4-carbonitrile]	100 to 1000
N#Cc1ccc(-c2cccc(CC3CNCCO3)c2-c2ccncc2)cc1F (centres unmarked) [Example 148, 3-fluoro-3′-[(morpholin-2-yl)methyl]-2′-(pyridin-4-yl)-[1,1′-biphenyl]-4-carbonitile]	100 to 1000
CC(C)(C)N1CCN(c2ccc(CC3CNCCO3)cc2-c2ccc(C#N)c(F)c2)CC1 (centres unmarked) [Example 149, 2′-(4-tert-butylpiperazin-1-yl)-3-fluoro-5′-[(morpholin-2-yl)methyl]-[1,1′-biphenyl]-4-carbonitrile]	100 to 1000
N#Cc1ccc(-c2cc(CC3CNCCO3)ccc2C2COC2)cc1F (centres unmarked) [Example 150, 3-fluoro-5'-[(morpholin-2-yl)methyl]-2'-(oxetan-3-yl)-[1,1'-biphenyl]-4-carbonitrile]	> 1000
N#Cc1ccc(-c2cc(CC3CNCCO3)ccc2N2CCC(O)(C(F)(F)F)CC2)cc1F (centres unmarked) [Example 151, 3-fluoro-2′-[4-hydroxy-4-(trifluoromethyl)piperidin-1-yl]-5′-[(morpholin-2-yl)methyl]-[1,1′-biphenyl]-4-]	100 to 1000
COCC1(O)CCCN(c2ccc(CC3CNCCO3)cc2-c2ccc(C#N)c(F)c2)CC1 (centres unmarked) [Example 152, 3-fluoro-2′-[4-hydroxy-4-(methoxymethyl)azepan-1-yl]-5′-[(morpholin-2-yl)methyl]-[1,1′-biphenyl]-4-carbonitrile]	100 to 1000
